Patent US20210045385A1, “PYRIDAZINONE-SUBSTITUTED KETOXIMES AS HERBICIDES” (FMC Corporation, priority 2018, published 2021)

What was measured:
Type in all cases: in vivo
[1] = system: Italian ryegrass (Lolium mutiflorum); test: Test C preemergence, visual plant response rating
Source text: (§1) Seeds of plant species selected from barnyardgrass (Echinochloa crus-galli), kochia (Bassia scoparia), ragweed (common ragweed, Ambrosia artemisiifolia), Italian ryegrass (Lolium mutiflorum), foxtail, giant (giant foxtail, Setaria faberi), foxtail, green (green foxtail, Setaria viridis), and pigweed (Amaranthus retroflexus) were planted into a blend of loam soil and sand and treated preemergence with a directed soil spray using test chemicals formulated in anon-phytotoxic solvent mixture which included a surfactant.
(§2) At the same time, plants selected from these weed species and also wheat (Triticum aestivum), corn (Zea mays), blackgrass (Alopecurus myosuroides), and galium (catchweed bedstraw, Galium aparine) were planted in pots containing the same blend of loam soil and sand and treated with post emergence applications of test chemicals formulated in the same manner. Plants ranged in height from 2 to 10 cm and were in the one- to two-leaf stage for the postemergence treatment. Treated plants and untreated controls were maintained in a greenhouse for approximately 10 d, after which time all treated plants were compared to untreated controls and visually evaluated for injury. Plant response ratings, summarized in Table C, are based on a 0 to 100 scale where 0 is no effect and 100 is complete control. A dash (-)response means no test result.

[2] = system: barnyardgrass (Echinochloa crus-galli); test: Test C preemergence, visual plant response rating
Source text: as §1, §2

[3] = system: foxtail, giant (giant foxtail, Setaria faberi); test: Test C preemergence, visual plant response rating
Source text: as §1, §2

kochia (Bassia scoparia) [4] = test: Test C preemergence, visual plant response rating
Source text: as §1, §2

[5] = system: pigweed (Amaranthus retroflexus); test: Test C preemergence, visual plant response rating
Source text: as §1, §2

[6] = system: Italian ryegrass (Lolium mutiflorum); test: Test C postemergence, visual plant response rating
Source text: as §1, §2

[7] = system: barnyardgrass (Echinochloa crus-galli); test: Test C postemergence, visual plant response rating
Source text: as §1, §2

[8] = system: blackgrass (Alopecurus myosuroides); test: Test C postemergence, visual plant response rating
Source text: as §1, §2

corn (Zea mays) = test: Test C postemergence, visual plant response rating
Source text: as §1, §2

[9] = system: foxtail, giant (giant foxtail, Setaria faberi); test: Test C postemergence, visual plant response rating
Source text: as §1, §2

[10] = system: galium (catchweed bedstraw, Galium aparine); test: Test C postemergence, visual plant response rating
Source text: as §1, §2

kochia (Bassia scoparia) [11] = test: Test C postemergence, visual plant response rating
Source text: as §1, §2

[12] = system: pigweed (Amaranthus retroflexus); test: Test C postemergence, visual plant response rating
Source text: as §1, §2

[13] = system: ragweed (common ragweed, Ambrosia artemisiifolia); test: Test C postemergence, visual plant response rating
Source text: as §1, §2

[14] = system: wheat (Triticum aestivum); test: Test C postemergence, visual plant response rating
Source text: as §1, §2

[15] = system: barnyardgrass (Echinochloa crus-galli); test: Test D flooded paddy test, visual plant response rating; conditions: 250 g ai/ha, scale 0 to 100 (0 no effect, 100 complete control), 13 to 15 d
Experimental: (§3) Plant species in the flooded paddy test selected from rice (Oryza sativa), sedge umbrella (small-flower umbrella sedge, Cyperus difformis) duck salad (Heteranthera limosa), and barnyardgrass (Echinochloa crus-galli) were grown to the 2-leaf stage for testing. At time of treatment, test pots were flooded to 3 cm above the soil surface, treated by application of test compounds directly to the paddy water, and then maintained at that water depth for the duration of the test. Treated plants and controls were maintained in a greenhouse for 13 to 15 d, after which time all species were compared to controls and visually evaluated. Plant response ratings, summarized in Table D, are based on a scale of 0 to 100 where 0 is no effect and 100 is complete control. A dash (-) response means no test result.

[16] = system: duck salad (Heteranthera limosa); test: as above; conditions: 250 g ai/ha, scale 0 to 100 (0 no effect, 100 complete control), 13 to 15 d
Experimental: as §3

rice (Oryza sativa) = test: as above; conditions: 250 g ai/ha, scale 0 to 100 (0 no effect, 100 complete control), 13 to 15 d
Experimental: as §3

[17] = system: sedge umbrella (small-flower umbrella sedge, Cyperus difformis); test: as above; conditions: 250 g ai/ha, scale 0 to 100 (0 no effect, 100 complete control), 13 to 15 d
Experimental: as §3

[18] = Test C, 31 g ai/ha, 0 is no effect, 100 is complete control
[19] = Test C, 125 g ai/ha, 0 is no effect, 100 is complete control
[20] = Test C, postemergence, 125 g ai/ha

Row | SMILES | Ryegrass, Italian plant response rating (0 to 100 scale) [1, 18] | Barnyardgrass plant response rating (0 to 100 scale) [2, 18] | Foxtail, Giant plant response rating (0 to 100 scale) [3, 18] | Kochia plant response rating (0 to 100 scale) (kochia (Bassia scoparia) [4]; [18]) | Pigweed plant response rating (0 to 100 scale) [5, 18] | Ryegrass, Italian plant response rating (0 to 100 scale) ([6]; Postemergence, 31 g ai/ha) | Ryegrass, Italian plant response rating (0 to 100 scale) [6, 20] | Barnyardgrass plant response rating (0 to 100 scale) ([7]; Postemergence, 31 g ai/ha) | Barnyardgrass plant response rating (0 to 100 scale) [7, 20] | Blackgrass plant response rating (0 to 100 scale) ([8]; Postemergence, 31 g ai/ha) | Blackgrass plant response rating (0 to 100 scale) [8, 20] | Corn plant response rating (0 to 100 scale) (corn (Zea mays); Postemergence, 31 g ai/ha) | Corn plant response rating (0 to 100 scale) (corn (Zea mays); [20]) | Foxtail, Giant plant response rating (0 to 100 scale) ([9]; Postemergence, 31 g ai/ha) | Foxtail, Giant plant response rating (0 to 100 scale) [9, 20] | Galium plant response rating (0 to 100 scale) ([10]; Postemergence, 31 g ai/ha) | Galium plant response rating (0 to 100 scale) [10, 20] | Kochia plant response rating (0 to 100 scale) (kochia (Bassia scoparia) [11]; Postemergence, 31 g ai/ha) | Kochia plant response rating (0 to 100 scale) (kochia (Bassia scoparia) [11]; [20]) | Pigweed plant response rating (0 to 100 scale) ([12]; Postemergence, 31 g ai/ha) | also measured
1 | CC(C)O/N=C(/c1c(O)c(Cl)nn(C)c1=O)c1cc(Br)cc2ccccc12 [Compound 232] | 0 | 60 | 70 | 0 | 70 | 0 | 0 | 40 | 90 | 20 | 50 | 0 | 10 | 60 | 80 | 80 | 100 | 20 | 50 | 70 | Ryegrass, Italian plant response rating (0 to 100 scale) [1, 19]: 0; Barnyardgrass plant response rating (0 to 100 scale) [2, 19]: 100; Foxtail, Giant plant response rating (0 to 100 scale) [3, 19]: 100; Kochia plant response rating (0 to 100 scale) (kochia (Bassia scoparia) [4]; [19]): 10; Pigweed plant response rating (0 to 100 scale) [5, 19]: 90; Pigweed plant response rating (0 to 100 scale) [12, 20]: 90; Ragweed plant response rating (0 to 100 scale) ([13]; Postemergence, 31 g ai/ha): 100; Ragweed plant response rating (0 to 100 scale) [13, 20]: 100; Wheat plant response rating (0 to 100 scale) ([14]; Postemergence, 31 g ai/ha): 0; Wheat plant response rating (0 to 100 scale) [14, 20]: 0; Plant response rating, Barnyardgrass (Flood) [15]: 30; Plant response rating, Ducksalad (Flood) [16]: 30; Plant response rating, Rice (Flood) (rice (Oryza sativa)): 0; Plant response rating, Sedge, Umbrella (Flood) [17]: 95
2 | CCON=C(c1cc(Cl)cc(Br)c1)c1c(O)c(C)nn(C)c1=O [Compound 181] | 0 | 0 | 50 | 30 | 30 | 70 | 100 | 40 | 60 | 0 | 20 | 0 | 30 | 50 | 80 | 100 | 100 | 60 | 80 | 40 | Ryegrass, Italian plant response rating (0 to 100 scale) ([1]; 125 g ai/ha): 90; Barnyardgrass plant response rating (0 to 100 scale) ([2]; 125 g ai/ha): 60; Foxtail, Giant plant response rating (0 to 100 scale) ([3]; 125 g ai/ha): 90; Kochia plant response rating (0 to 100 scale) (kochia (Bassia scoparia) [4]; 125 g ai/ha): 70; Pigweed plant response rating (0 to 100 scale) ([5]; 125 g ai/ha): 90; Pigweed plant response rating (0 to 100 scale) [12, 20]: 90; Ragweed plant response rating (0 to 100 scale) ([13]; Postemergence, 31 g ai/ha): 100; Ragweed plant response rating (0 to 100 scale) [13, 20]: 100; Wheat plant response rating (0 to 100 scale) ([14]; Postemergence, 31 g ai/ha): 0; Wheat plant response rating (0 to 100 scale) [14, 20]: 50; Plant response rating, Barnyardgrass (Flood) [15]: 0; Plant response rating, Ducksalad (Flood) [16]: 0; Plant response rating, Rice (Flood) (rice (Oryza sativa)): 0; Plant response rating, Sedge, Umbrella (Flood) [17]: 0
